Entries after “also recorded” stand apart in the source; their conditions may differ. Like-named read-outs stand apart in the source and are kept apart here.
How the values were obtained:
[1] = system: DU-145 cells; assay: In vitro anti-proliferation (CellTiter-Glo, 72 hr), DU-145; type: cell-based, human
Description: (§1) Commercially available 8HQ and freshly synthesized G2-8HQ were prepared for in vitro anti-proliferative studies against the following cell lines with and without the presence of 10 μM Cu(+2): (1) A549: […]; (2) BT-549: epithelial cells from ductal tumor; (3) DU-145: human prostate cancer; (4) PANC-1: pancreatic cancer; (5) SU.86.86: a new adoptive pancreatic cell for immunotherapy studies; (6) RL: non-Hodgkin's lymphoma; (7) LnCAP, Prostate cancer cell line; (8) A431, a squamous cell carcinoma line; and (9) UACC-62 a malignant melanoma cell line.
(§2) With regard to the study protocol used, the objective was to conduct a study of the cytotoxicity of W1469 against several cancer cell lines. In the study protocol, preparations for the A549 (Lung) cell line screen are given as an example. The following materials were used: (1) FBS (2) RPMI-1640 medium supplemented with 10% FBS:’ and (3) A549 Cells. The four samples tested are referred to as Items 1-4 below and were placed at 4 °C upon arrival. These four samples were as follows: • Item 1: Tube A (W1469) (500 uM when FBS added) • Item 2: Tube B (W1469g) (1000 uM when FBS added) • Item 3: Tube C (W1469) • Item 4: Tube D (W1469g)
(§3) Add 50 μL of above 2× stocks to appropriate wells to expose appropriate cells to the final dilutions of samples. Add 50 μL media to media and cell control wells and 50 μL media mix to vehicle control wells. Cells are exposed for 72 hr. Following a 72 hr exposure to Sample, perform a CTG assay on all remaining plates.
(§4) At the end of the 72 hr exposure period, remove plates for CellTiter-Glo assay from 37 °C, 5% CO2 incubator and place on the bench at room temperature for 30 mins. Add 100 μL CellTiter-Glo reagent, mix for 2 mins, followed by a further 10 min incubation at room temperature. Record luminescence. Tables showing the resulting plate layouts are included below/

[2] = system: PANC-1 cells; assay: In vitro anti-proliferation (CellTiter-Glo, 72 hr), PANC-1; type: cell-based
Description: as §1, §2, §3, §4

[3] = system: SU.86.86 cells; assay: In vitro anti-proliferation (CellTiter-Glo, 72 hr), SU.86.86; type: cell-based
Description: as §1, §2, §3, §4

[4] = system: A431 cells; assay: In vitro anti-proliferation (CellTiter-Glo, 72 hr), A431; type: cell-based
Description: as §1, §2, §3, §4
The other cancer cell lines tested gave similar results. […] Three additional cell lines were also studied and described more completely in Example 9 provided herein. These cell lines included cytotoxicity testing of WT1469 (G2-8HQ) against LnCAP a prostate cancer, A431 a squamous carcinoma cell line and UACC-62 a malignant melanoma cell line. All were complexed in situ with copper immediately prior to testing. The results from these additional cell lines and incorporated in Table 2 and Example 9.

[5] = Chemical stability; type: physicochemical
[6] = system: squamous cell carcinoma; assay: Case study, topical W1469, squamous cell carcinoma (Individual 4); type: in vivo, human
Description: (§5) Topical gel containing 0.5 mg/ml W1469 in proprietary aqueous alcohol gel, applied initially once daily using a suitable topical applicator.
(§6) In general, the Treatment/Patient protocol used for the patient testing was as follows: • 1. Photograph the application site prior to starting the protocol. Note any changes in lesion size, color, etc. of treatment area. • 2. Remove a loaded syringe from the freezer, dry ice or refrigerator and allow to gradually warm to room temperature. • 3. Photograph the syringe each time prior to application. Note the color of the gel contained in the syringe. • 4. Lightly clean the skin surface with alcohol wipe. • 5. […] Let the liquid from the gel absorb into the site without disturbing. Apply once a day at the same time. • 6. Re-cap the syringe and store in the refrigerator until completely used. • 7. Repeat 1-6 each daily during application period. It is noted in this protocol that photographing the syringe used with each application period accomplishes two things.
Physician administered, variable treatment protocol, drug concentrations and vehicle carrier. A person with 2 mm ulcerative lesion (squamous cell carcinoma) to the post-auricular area of left side of the head. The lesion area had been biopsied and treated with cryotherapy one year prior. Lesion area had begun to reappear 3 months prior to this photo. After three days of once daily treatment, the same lesion was already reduced to approximately ½ of original size. […] Note: Subject's initial dosing schedule was once daily. […] Upon next visit (three days after initial dosing) […] dose was doubled while maintaining a once daily schedule. Over the next three days their lesion resolved completely and without any adverse reactions noted.

[7] = system: basal cell and squamous cell cancer; assay: Case studies overview, topical W1469; type: in vivo, human
Description: as §5, §6
• 1. Toleration/toxicity • 2. Application methodology • 3. Any visual indications of efficacy • 4. Patient feedback Study Duration: Varied case by case. Generally, two weeks to two months

[8] = 1 and 0.5 μM, presence of Cu^+2 ions, wide standard deviation
[9] = +Cu (10 μM), 72 hr, G2-8HQ values based on MW of apo form (337), read-out: IC50
[10] = complexed with Cu, multiplied by 337/776=0.43, column 3 duplicate of column 2, listed as W1469, read-out: IC50 (adjusted to MW of copper complex)

O=C(O)[C@H]1O[C@@H](Oc2ccc3cccc(O)c3n2)[C@H](O)[C@@H](O)[C@@H]1O [G2-8HQ, 8-Hydroxy-2-quinolinyl beta-D-glucopyranosiduronic acid]
cytotoxicity [1, 8]: in some percentage of the screens all the cancer cells were killed at these concentrations
IC50 [1, 9]: 8.7 µM
IC50 ([1]; Homo sapiens, DU-145, 72 h, +Cu (10 μM), 72 hr, G2-8HQ values based on MW of apo form (337), read-out: IC50): 7.3 µM
IC50 ([1]; Homo sapiens, DU-145, 72 h, −Cu, 72 hr, read-out: IC50): > 500 µM
IC50 ([1]; Homo sapiens, DU-145, complexed with Cu, multiplied by 337/776=0.43, column 3 duplicate of column 2, read-out: IC50 (adjusted to MW of copper complex)): 3.1 µM
IC50 [1, 10]: 3.7 µM
cytotoxicity [2, 8]: at least some of the screens reflected that all the cancer cells were killed at these concentrations; also recorded: in some % of the screens all the cancer cells were killed at these concentrations
IC50 ([2]; Homo sapiens, PANC-1, 72 h, −Cu, 72 hr): > 500 µM
cytotoxicity [3, 8]: in a percentage of cases, all of the cancer cells were killed at concentrations between at 1 and 0.5 μM; also recorded: in some % of the screens all the cancer cells were killed at these concentrations
IC50 [3, 9]: 13 µM
IC50 ([3]; Homo sapiens, SU.86.86, 72 h, +Cu (10 μM), 72 hr, G2-8HQ values based on MW of apo form (337), read-out: IC50): 10 µM
IC50 ([3]; Homo sapiens, SU.86.86, 72 h, −Cu, 72 hr, read-out: IC50): > 500 µM
IC50 ([3]; Homo sapiens, SU.86.86, complexed with Cu, multiplied by 337/776=0.43, column 3 duplicate of column 2, read-out: IC50 (adjusted to MW of copper complex)): 4.3 µM
IC50 [3, 10]: 5.6 µM
IC50 ([4]; +Cu, complexed in situ with copper immediately prior to testing, not based on apo MW, read-out: IC50): 85 µM
IC50 ([4]; Homo sapiens, A-431, +Cu, complexed in situ with copper immediately prior to testing, not based on apo MW, read-out: IC50): 64 µM
IC50 ([4]; Homo sapiens, A-431, complexed with Cu in situ, * differences with or without excipient, suboptimal complexing, read-out: IC50 (adjusted to MW of copper complex)): 63.2 µM
IC50 ([4]; complexed with Cu in situ, * differences with or without excipient, suboptimal complexing, listed as W1469, read-out: IC50 (adjusted to MW of copper complex)): 83.4 µM
stability ([5]; aqueous solutions, pH values lower than 8, or over time in organic solvents): less stable
stability ([5]; dissolving in DMSO (without copper)): yields over time the precipitated degradation product of the keto form of 2-8HQ
stability ([5]; neutral or physiological pH in the plasma): chemically stable
stability ([5]; pH of 5): degrade the compound almost immediately
lesion size (fraction of original size) ([6]; Individual 4, after three days of once daily treatment): approximately ½
adverse reactions ([6]; Individual 4, once daily, dose doubled after three days): no adverse reactions
lesion resolution ([6]; Individual 4, regular treatment for one week): complete resolution of the patient's lesion
Side Effects ([7]; all 4 case studies): No side effects were noted
appearance of skin surrounding the cancer lesion(s) ([7]; all 4 case studies): Marked improvements in general appearance of skin surrounding the cancer lesion(s)
cancer lesion size ([7]; all 4 case studies): Progressive reduction of cancer lesion size
dose dependency ([7]; all 4 case studies): higher concentrations work better
effect on adjacent tissue ([7]; all 4 case studies): Doesn't inflame or injure adjacent tissue
pain of treatment and application ([7]; all 4 case studies): not painful
time to rapid elimination of pain and visible inflammation ([7]; all 4 case studies): 2 to 5 days
toxicity ([7]; topical gel 0.5 mg/ml, once daily initially): no toxicity was observed

— patent US20260345654A1, “2,8-DIHYDROXYQUINOLINE GLUCURONIDE DERIVATIVES WITH ENHANCED PROPERTIES FOR USE AS ANTICANCER, ANTIVIRAL, ANTIMICROBIAL, AND OTHER THERAPEUTIC APPLICATIONS” (priority 2023, published 2026)
